Experimental data: paper PMC10728895, “Stapled Phd Peptides Inhibit Doc Toxin Induced Growth Arrest in Salmonella” (ACS Chemical Biology, 2023)
Positions of bridges follow the written chain, without caps; N, C: chain ends. Non-standard residues stand in square brackets, D forms with d. Residues, ends and D or L forms follow the SMILES beside them. *: point of attachment. 5FAM = O=C1OC2(c3ccc(O)cc3Oc3cc(O)ccc32)c2ccc(C(=O)*)cc21; S5 = C=CCCC[C@](C)(N)C(=O)O; Nle = CCCC[C@H](N)C(=O)O

How the values were obtained:
[1] = tested on: S. typhimurium (14028s) glmS::mCherry strain; experiment: Peptide uptake in S. typhimurium by flow cytometry; assay type: cell-based; conditions: 10 μM FAM-labeled peptide, RT
Method: S. typhimurium (14028s) glmS::mCherry strain was grown overnight in LB medium containing 1% glucose. The culture was then diluted to an OD600 of approximately 0.1 into 200 μL of fresh M9 minimal medium supplemented with 0.5% arabinose containing 2 or 10 μM of the indicated 5(6)-carboxyfluorescein-labeled Phd^52–73 peptide. The samples were incubated on the bench at RT for 4 or 22 h with no access to light. Bacteria were then spun down, washed with 1 mL of PBS solution, and finally resuspended in 1 mL of PBS solution for flow cytometry analysis (BD LSR II). Constitutively expressed mCherry was used to discriminate bacteria from the debris in each sample.

[2] = tested on: DocSTm (phosphorylation of EF-TuSTm); experiment: Dot blot EF-Tu phosphorylation assay; assay type: biochemical, Salmonella Typhimurium; conditions: DocSTm 1 μM, EF-TuSTm 3 μM, peptide 10 μM to 5 nM (3-fold dilutions), 16 h RT, dot blot anti-phosphothreonine; compared at three times the DocSTm concentration; two independent experiments
Method: Samples were prepared in assay buffer [50 mM HEPES (pH 7.5), 25 mM (NH4)2SO4, 2 mM TCEP, 2 mM MgCl2, and 1 mM ATP] with a final concentration of recombinant Doc at 1 μM, recombinant EF-Tu at 3 μM, and varying concentrations of synthetic Phd peptides (final concentrations: 10 μM to 5 nM). EF-Tu (3 μM) in assay buffer was used as a negative control (no Doc and Phd peptide), while EF-Tu (3 μM) with Doc (1 μM) in assay buffer was used as a positive control (no Doc inhibitor). The final sample volume was 10 μL. Samples were incubated for 16 h at RT and subsequently spotted on a nitrocellulose membrane. Phosphorylated EF-Tu was detected by immunodecoration using a rabbit monoclonal antiphosphothreonine antibody (Abcam, ab218195) at 1:2000 dilution (1 h at 4 °C), followed by incubation with a goat antirabbit IgG (H + L) HRP conjugate antibody (Advansta) at 1:10,000 dilution (1 h at RT). Chemiluminescence was developed using the HRP Luminata Kit (Merck, WBLUR0100) and captured with an ImageQuant LAS4000 Western blot imaging system (GE HealthCare). Each peptide was tested in two independent experiments.

DocSTm toxin = conditions: DocSTm 5 μM, peptide 50 μM; for Average Tm of DocSTm in the presence of peptide: pH 8.0, average ± SD, replicates 3-48 (Table S3)
In short: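 Thermal shift with 5 μM recombinant Doc toxin and 50 μM Phd peptides in 20 mM K2HPO4, 50 mM (NH4)2SO4, pH 8.0, SYPRO Orange 3×, ramped 25–95 °C. Tm from Boltzmann fit; ΔTm is peptide-bound minus free DocSTm Tm, triplicates.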

SMILES	Uptake into S. typhimurium (penetration efficiency) ([1]; 4 or 22 h, M9 minimal medium)	Uptake into S. typhimurium (% fluorescent cells) ([1]; 22 h)	Inhibition of EF-TuSTm phosphorylation by DocSTm (concentration needed for full inhibition) [2]	Average Tm of DocSTm in the presence of peptide (DocSTm toxin) [°C]	ΔTm (thermal shift) of DocSTm in the presence of peptide (DocSTm toxin; SYPRO Orange 3×, 20 mM K2HPO4, 50 mM (NH4)2SO4, pH 8.0, average Tm with peptide minus average Tm of free DocSTm, mean ± SD)
CCCC[C@H](NC(=O)[C@H](Cc1c[nH]c2ccccc12)NC(=O)c1ccc2c(c1)C(=O)OC21c2ccc(O)cc2Oc2cc(O)ccc21)C(=O)N[C@@H](CC(N)=O)C(=O)N[C@@H](CC(N)=O)C(=O)N[C@@H](CCC(=O)O)C(=O)N[C@@H](Cc1ccccc1)C(=O)N[C@@]1(C)CCCC=CCCC[C@@](C)(C(=O)N[C@H](C(=O)N[C@@H](Cc2c[nH]cn2)C(=O)NCC(=O)N[C@@H](CCCNC(=N)N)C(=O)N[C@@H](CCC(N)=O)C(=O)N[C@@H](CC(C)C)C(=O)N[C@@H](CCCNC(=N)N)C(=O)N[C@@H](CCCNC(=N)N)C(=O)N[C@@H](CC(C)C)C(=O)N[C@@H](C)C(=O)N[C@@H](CCCNC(=N)N)C(=O)N[C@@H](CCCCN)C(=O)O)C(C)C)NC(=O)[C@H](CCCC)NC(=O)[C@H]([C@@H](C)CC)NC(=O)[C@H](C)NC1=O [FAM-36] (5FAM-W[Nle]NNEF[S5]AI[Nle][S5]VHGRQLRRLARK-OH; staple 7-11)	9–30%	more than 20%	–	–	–
CCCC[C@H](NC(=O)[C@H](Cc1c[nH]c2ccccc12)NC(C)=O)C(=O)N[C@@H](CCCNC(=N)N)C(=O)N[C@@H](CC(=O)O)C(=O)N[C@@H](CCC(=O)O)C(=O)N[C@@H](Cc1ccccc1)C(=O)N[C@@H](CCCNC(=N)N)C(=O)N[C@@H](C)C(=O)N[C@H](C(=O)N[C@@H](CCCC)C(=O)N[C@@H](CCCNC(=N)N)C(=O)N[C@H](C(=O)N[C@@H](Cc1c[nH]cn1)C(=O)NCC(=O)N[C@@]1(C)CCCC=CCCC[C@@](C)(C(=O)N[C@@H](CC(C)C)C(=O)N[C@@H](C)C(=O)N[C@@H](CC(=O)O)C(=O)N[C@@H](CCCCN)C(=O)O)NC(=O)[C@H](CCCNC(=N)N)NC(=O)[C@H](CC(C)C)NC(=O)[C@H](CCC(=O)O)NC1=O)C(C)C)[C@@H](C)CC [Peptide 21] (Ac-W[Nle]RDEFRAI[Nle]RVHG[S5]ELR[S5]LADK-OH; staple 15-19)	–	–	required a higher concentration to achieve full inhibition	61.1 ± 2.5	–
CCCC[C@H](NC(=O)[C@H](Cc1c[nH]c2ccccc12)NC(C)=O)C(=O)N[C@@H](CCCNC(=N)N)C(=O)N[C@@H](CC(N)=O)C(=O)N[C@@H](CCC(=O)O)C(=O)N[C@@H](Cc1ccccc1)C(=O)N[C@@H](CCCNC(=N)N)C(=O)N[C@@H](C)C(=O)N[C@H](C(=O)N[C@@H](CCCC)C(=O)N[C@@H](CCCNC(=N)N)C(=O)N[C@H](C(=O)N[C@@H](Cc1c[nH]cn1)C(=O)NCC(=O)N[C@@]1(C)CCCC=CCCC[C@@](C)(C(=O)N[C@@H](CC(C)C)C(=O)N[C@@H](C)C(=O)N[C@@H](CC(N)=O)C(=O)N[C@@H](CCCCN)C(=O)O)NC(=O)[C@H](CCCNC(=N)N)NC(=O)[C@H](CC(C)C)NC(=O)[C@H](CCC(N)=O)NC1=O)C(C)C)[C@@H](C)CC [Peptide 29] (Ac-W[Nle]RNEFRAI[Nle]RVHG[S5]QLR[S5]LANK-OH; staple 15-19)	–	–	required a higher concentration for full DocSTm inhibition	61.6 ± 0.3	–
CCCC[C@H](NC(=O)[C@H](Cc1c[nH]c2ccccc12)NC(C)=O)C(=O)N[C@@H](CC(=O)O)C(=O)N[C@@H](CC(N)=O)C(=O)N[C@@H](CCC(=O)O)C(=O)N[C@@H](Cc1ccccc1)C(=O)N[C@@H](C)C(=O)N[C@@H](C)C(=O)N[C@H](C(=O)N[C@@H](CCCC)C(=O)N[C@@H](C)C(=O)N[C@H](C(=O)N[C@@H](Cc1c[nH]cn1)C(=O)NCC(=O)N[C@@H](CCCNC(=N)N)C(=O)N[C@@H](CCC(N)=O)C(=O)N[C@@H](CC(C)C)C(=O)N[C@@H](CCCNC(=N)N)C(=O)N[C@@H](CCCNC(=N)N)C(=O)N[C@@H](CC(C)C)C(=O)N[C@@H](C)C(=O)N[C@@H](CC(N)=O)C(=O)N[C@@H](CCCCN)C(=O)O)C(C)C)[C@@H](C)CC [Peptide 30] (Ac-W[Nle]DNEFAAI[Nle]AVHGRQLRRLANK-OH)	–	–	higher than three times the DocSTm concentration	56.7 ± 2.6	≈ 14 °C
CCCC[C@H](NC(=O)[C@H](Cc1c[nH]c2ccccc12)NC(C)=O)C(=O)N[C@@H](CC(N)=O)C(=O)N[C@@H](CC(N)=O)C(=O)N[C@@H](CCC(=O)O)C(=O)N[C@@H](Cc1ccccc1)C(=O)N[C@@H](C)C(=O)N[C@@H](C)C(=O)N[C@H](C(=O)N[C@@H](CCCC)C(=O)N[C@@H](C)C(=O)N[C@H](C(=O)N[C@@H](Cc1c[nH]cn1)C(=O)NCC(=O)N[C@@H](CCCNC(=N)N)C(=O)N[C@@H](CCC(N)=O)C(=O)N[C@@H](CC(C)C)C(=O)N[C@@H](CCCNC(=N)N)C(=O)N[C@@H](CCCNC(=N)N)C(=O)N[C@@H](CC(C)C)C(=O)N[C@@H](C)C(=O)N[C@@H](CC(N)=O)C(=O)N[C@@H](CCCCN)C(=O)O)C(C)C)[C@@H](C)CC [Peptide 31] (Ac-W[Nle]NNEFAAI[Nle]AVHGRQLRRLANK-OH)	–	–	higher than three times the DocSTm concentration	61.6 ± 1.9	–
CCCC[C@H](NC(=O)[C@H](Cc1c[nH]c2ccccc12)NC(C)=O)C(=O)N[C@@H](CC(=O)O)C(=O)N[C@@H](CC(N)=O)C(=O)N[C@@H](CCC(=O)O)C(=O)N[C@@H](Cc1ccccc1)C(=O)N[C@@H](C)C(=O)N[C@@H](C)C(=O)N[C@H](C(=O)N[C@@H](CCCC)C(=O)N[C@@H](C)C(=O)N[C@H](C(=O)N[C@@H](Cc1c[nH]cn1)C(=O)NCC(=O)N[C@@H](CCCNC(=N)N)C(=O)N[C@@H](CCC(N)=O)C(=O)N[C@@H](CC(C)C)C(=O)N[C@@H](CCCNC(=N)N)C(=O)N[C@@H](CCCNC(=N)N)C(=O)N[C@@H](CC(C)C)C(=O)N[C@@H](C)C(=O)N[C@@H](CCCNC(=N)N)C(=O)N[C@@H](CCCCN)C(=O)O)C(C)C)[C@@H](C)CC [Peptide 32] (Ac-W[Nle]DNEFAAI[Nle]AVHGRQLRRLARK-OH)	–	–	close to the activity of peptide 1	62.6 ± 1.2	–
CCCC[C@H](NC(=O)[C@H](Cc1c[nH]c2ccccc12)NC(C)=O)C(=O)N[C@@H](CC(N)=O)C(=O)N[C@@H](CC(N)=O)C(=O)N[C@@H](CCC(=O)O)C(=O)N[C@@H](Cc1ccccc1)C(=O)N[C@@H](C)C(=O)N[C@@H](C)C(=O)N[C@H](C(=O)N[C@@H](CCCC)C(=O)N[C@@H](C)C(=O)N[C@H](C(=O)N[C@@H](Cc1c[nH]cn1)C(=O)NCC(=O)N[C@@H](CCCNC(=N)N)C(=O)N[C@@H](CCC(N)=O)C(=O)N[C@@H](CC(C)C)C(=O)N[C@@H](CCCNC(=N)N)C(=O)N[C@@H](CCCNC(=N)N)C(=O)N[C@@H](CC(C)C)C(=O)N[C@@H](C)C(=O)N[C@@H](CCCNC(=N)N)C(=O)N[C@@H](CCCCN)C(=O)O)C(C)C)[C@@H](C)CC [Peptide 33] (Ac-W[Nle]NNEFAAI[Nle]AVHGRQLRRLARK-OH)	–	–	higher than three times the DocSTm concentration	63.0 ± 0.8	–
